ChEMBL document CHEMBL2375215, “Phenylpropiophenone derivatives as potential anticancer agents: synthesis, biological evaluation and quantitative structure-activity relationship study” (Eur J Med Chem, 2013)

Tests used:
[1] = Selectivity index, ratio of IC50 for PHA-stimulated human PBMC to IC50 for human LS174 cells
[2] = Selectivity index, ratio of IC50 for human PBMC to IC50 for human LS174 cells
PC-3 [3] = test: Selectivity index, ratio of IC50 for human PBMC to IC50 for human PC3 cells
PC-3 [4] = test: Selectivity index, ratio of IC50 for PHA-stimulated human PBMC to IC50 for human PC3 cells
MCF7 [5] = test: Selectivity index, ratio of IC50 for PHA-stimulated human PBMC to IC50 for human MCF7 cells
MCF7 [6] = test: Selectivity index, ratio of IC50 for human PBMC to IC50 for human MCF7 cells
K562 [7] = test: Selectivity index, ratio of IC50 for PHA-stimulated human PBMC to IC50 for human K562 cells
K562 [8] = test: Selectivity index, ratio of IC50 for human PBMC to IC50 for human K562 cells
[9] = Selectivity index, ratio of IC50 for PHA-stimulated human PBMC to IC50 for human Fem-X cells; assay type: functional
[10] = Selectivity index, ratio of IC50 for human PBMC to IC50 for human Fem-X cells
HeLa [11] = test: Selectivity index, ratio of IC50 for PHA-stimulated human PBMC to IC50 for human HeLa cells
HeLa [12] = test: Selectivity index, ratio of IC50 for human PBMC to IC50 for human HeLa cells
PBMC [13] = test: Cytotoxicity against human PBMC assessed as decrease in cell survival after 72 hrs by MTT assay; assay type: cell-based
PBMC [14] = test: Cytotoxicity against PHA-stimulated human PBMC assessed as decrease in cell survival after 72 hrs by MTT assay; assay type: cell-based
[15] = (§1) Cytotoxicity against human LS174 cells assessed as decrease in cell survival after 72 hrs by MTT assay; assay type: functional, cell-based; details: LS174, 72 h
LS174 = test: as §1; assay type: functional, cell-based
PC-3 [16] = test: Cytotoxicity against human PC3 cells assessed as decrease in cell survival after 72 hrs by MTT assay; assay type: functional, cell-based; details: for IC50: PC-3, 72 h
MCF7 [17] = test: Cytotoxicity against human MCF7 cells assessed as decrease in cell survival after 72 hrs by MTT assay; assay type: functional, cell-based; details: for IC50: MCF7, 72 h
K562 [18] = test: Cytotoxicity against human K562 cells assessed as decrease in cell survival after 72 hrs by MTT assay; assay type: functional, cell-based; details: for IC50: K562, 72 h
[19] = (§2) Cytotoxicity against human Fem-X cells assessed as decrease in cell survival after 72 hrs by MTT assay; assay type: functional, cell-based
Fem-X = test: as §2; assay type: functional, cell-based
HeLa [20] = test: Cytotoxicity against human HeLa cells assessed as decrease in cell survival after 72 hrs by MTT assay; assay type: functional, cell-based

Row | Structure (SMILES) | Ratio IC50 [1] | Ratio IC50 [2] | IC50 ([15]; read-out: IC50) [µM] | IC50 ([15]; read-out: pIC50 (converted)) [µM] | Activity (LS174) | Activity (PC-3 [16]) | IC50 (PC-3 [16]; read-out: IC50) [µM] | IC50 (PC-3 [16]; read-out: pIC50 (converted)) [µM] | Activity (MCF7 [17]) | IC50 (MCF7 [17]; read-out: IC50) [µM] | IC50 (MCF7 [17]; read-out: pIC50 (converted)) [µM] | Activity (K562 [18]) | IC50 (K562 [18]; read-out: IC50) [µM] | IC50 (K562 [18]; read-out: pIC50 (converted)) [µM] | IC50 ([19]; read-out: IC50) [µM] | IC50 ([19]; read-out: pIC50 (converted)) [µM] | Activity (Fem-X) | Activity (HeLa [20]) | IC50 (HeLa [20]; read-out: IC50) [µM] | IC50 (HeLa [20]; read-out: pIC50 (converted)) [µM] | other results
1 | O=C(/C=C/c1ccccc1C(F)(F)F)c1ccccc1O | 1.32 | 1.59 | 26.4 | 26.4 | Dose-dependent effect | Dose-dependent effect | 33.5 | 33.5 | Dose-dependent effect | 16.9 | 16.9 | Dose-dependent effect | 9.2 | 9.2 | 10.2 | 10.2 | Dose-dependent effect | Dose-dependent effect | 18.1 | 18.1 | Ratio IC50 (PC-3 [3]): 1.25; Ratio IC50 (PC-3 [4]): 1.04; Ratio IC50 (MCF7 [5]): 2.07; Ratio IC50 (MCF7 [6]): 2.48; Ratio IC50 (K562 [7]): 3.79; Ratio IC50 (K562 [8]): 4.55; Ratio IC50 [9]: 3.42; Ratio IC50 [10]: 4.1; Ratio IC50 (HeLa [11]): 1.92; Ratio IC50 (HeLa [12]): 2.31; IC50 (PBMC [13]): 41.9 µM; IC50 (PBMC [14]): 25.2 µM
2 | CCCNCC(O)COc1ccccc1C(=O)CCc1ccc(C)cc1.Cl (racemic) | 1.99 | 2.34 | 20.8 | 20.8 | Dose-dependent effect | Dose-dependent effect | 24.7 | 24.7 | Dose-dependent effect | 31.7 | 31.7 | Dose-dependent effect | 14.7 | 14.7 | 12.7 | 12.7 | Dose-dependent effect | Dose-dependent effect | 21.7 | 21.7 | Ratio IC50 (PC-3 [3]): 1.97; Ratio IC50 (PC-3 [4]): 1.68; Ratio IC50 (MCF7 [5]): 1.31; Ratio IC50 (MCF7 [6]): 1.54; Ratio IC50 (K562 [7]): 2.82; Ratio IC50 (K562 [8]): 3.31; Ratio IC50 [9]: 3.26; Ratio IC50 [10]: 3.83; Ratio IC50 (HeLa [11]): 1.91; Ratio IC50 (HeLa [12]): 2.24; IC50 (PBMC [13]): 48.7 µM; IC50 (PBMC [14]): 41.4 µM
3 | CCCNCC(O)COc1ccccc1C(=O)CCc1ccc(F)cc1.Cl (racemic) | 2.1 | 2.6 | 23.2 | 23.2 | Dose-dependent effect | Dose-dependent effect | 31.9 | 31.9 | Dose-dependent effect | 33 | 33 | Dose-dependent effect | 27.7 | 27.7 | 9.6 | 9.6 | Dose-dependent effect | Dose-dependent effect | 16.1 | 16.1 | Ratio IC50 (PC-3 [3]): 3.35; Ratio IC50 (PC-3 [4]): 1.53; Ratio IC50 (MCF7 [5]): 1.48; Ratio IC50 (MCF7 [6]): 1.83; Ratio IC50 (K562 [7]): 1.76; Ratio IC50 (K562 [8]): 2.18; Ratio IC50 [9]: 5.08; Ratio IC50 [10]: 6.28; Ratio IC50 (HeLa [11]): 3.03; Ratio IC50 (HeLa [12]): 3.75; IC50 (PBMC [13]): 60.3 µM; IC50 (PBMC [14]): 48.8 µM
4 | Cc1ccc(/C=C/C(=O)c2ccccc2O)cc1 |  |  | 41.2 | 41.2 | Dose-dependent effect | Dose-dependent effect | 27.6 | 27.6 | Dose-dependent effect | 33.9 | 33.9 | Dose-dependent effect | 18.9 | 18.9 | 21.2 | 21.2 | Dose-dependent effect | Dose-dependent effect | 20.6 | 20.6 | 
5 | O=C(/C=C/c1ccccc1F)c1ccccc1O | 0.94 | 1.01 | 17.4 | 17.4 | Dose-dependent effect | Dose-dependent effect | 21.6 | 21.6 | Dose-dependent effect | 14.4 | 14.4 | Dose-dependent effect | 4.8 | 4.8 | 8.7 | 8.7 | Dose-dependent effect | Dose-dependent effect | 8.9 | 8.9 | Ratio IC50 (PC-3 [3]): 0.81; Ratio IC50 (PC-3 [4]): 0.76; Ratio IC50 (MCF7 [5]): 1.14; Ratio IC50 (MCF7 [6]): 1.22; Ratio IC50 (K562 [7]): 3.41; Ratio IC50 (K562 [8]): 3.67; Ratio IC50 [9]: 1.88; Ratio IC50 [10]: 2.02; Ratio IC50 (HeLa [11]): 1.84; Ratio IC50 (HeLa [12]): 1.98; IC50 (PBMC [13]): 17.6 µM; IC50 (PBMC [14]): 16.4 µM
6 | CCCNCC(O)COc1ccccc1C(=O)CCc1ccccc1C(F)(F)F.Cl (racemic) | 1.91 | 2.39 | 18.6 | 18.6 | Dose-dependent effect | Dose-dependent effect | 23.3 | 23.3 | Dose-dependent effect | 9.7 | 9.7 | Dose-dependent effect | 8.8 | 8.8 | 16.1 | 16.1 | Dose-dependent effect | Dose-dependent effect | 6.78 | 6.78 | Ratio IC50 (PC-3 [3]): 1.91; Ratio IC50 (PC-3 [4]): 1.52; Ratio IC50 (MCF7 [5]): 3.66; Ratio IC50 (MCF7 [6]): 4.58; Ratio IC50 (K562 [7]): 4.03; Ratio IC50 (K562 [8]): 5.05; Ratio IC50 [9]: 2.2; Ratio IC50 [10]: 2.76; Ratio IC50 (HeLa [11]): 5.24; Ratio IC50 (HeLa [12]): 6.55; IC50 (PBMC [13]): 44.4 µM; IC50 (PBMC [14]): 35.5 µM
7 | O=C(/C=C/c1ccc(F)cc1)c1ccccc1O |  |  | 35.3 | 35.3 | Dose-dependent effect | Dose-dependent effect | 30.4 | 30.4 | Dose-dependent effect | 26 | 26 | Dose-dependent effect | 17.9 | 17.9 | 21.8 | 21.8 | Dose-dependent effect | Dose-dependent effect | 22.6 | 22.6 | 
8 | O=C(/C=C/c1ccccc1Cl)c1ccccc1O |  |  | 32.2 | 32.2 | Dose-dependent effect | Dose-dependent effect | 20.1 | 20.1 | Dose-dependent effect | 29.8 | 29.8 | Dose-dependent effect | 9.8 | 9.8 | 10.4 | 10.4 | Dose-dependent effect | Dose-dependent effect | 11.2 | 11.2 | 
9 | CCCNCC(O)COc1ccccc1C(=O)CCc1ccccc1F.Cl (racemic) | 0.67 | 0.66 | 72.2 | 72.2 | Dose-dependent effect | Dose-dependent effect | 46.4 | 46.4 | Dose-dependent effect | 18.5 | 18.5 | Dose-dependent effect | 37.6 | 37.6 | 38.2 | 38.2 | Dose-dependent effect | Dose-dependent effect | 16.4 | 16.4 | Ratio IC50 (PC-3 [3]): 1.02; Ratio IC50 (PC-3 [4]): 1.04; Ratio IC50 (MCF7 [5]): 2.6; Ratio IC50 (MCF7 [6]): 2.57; Ratio IC50 (K562 [7]): 1.28; Ratio IC50 (K562 [8]): 1.26; Ratio IC50 [9]: 1.26; Ratio IC50 [10]: 1.24; Ratio IC50 (HeLa [11]): 2.93; Ratio IC50 (HeLa [12]): 2.89; IC50 (PBMC [13]): 47.5 µM; IC50 (PBMC [14]): 48.1 µM
10 | Cc1ccccc1/C=C/C(=O)c1ccccc1O |  |  | 48.8 | 48.8 | Dose-dependent effect | Dose-dependent effect | 19.2 | 19.2 | Dose-dependent effect | 37.7 | 37.7 | Dose-dependent effect | 18.5 | 18.5 | 22.4 | 22.4 | Dose-dependent effect | Dose-dependent effect | 14.7 | 14.7 | 
